Data as given in the kinase profiling compilation of Christmann-Franck et al. (2016).
Several values for one entry are separate records, joined by “and”; a condition that tells them apart may be missing. Identical values can stand only once.

Key:
Assay in all cases: radiometric filter-binding kinase assay, Kinase HotSpot
Conditions in all cases: compound 0.5 µM; ATP 10 µM
CDC42BPA (human) = CDC42BPA (human) (UniProt Q5VT25)
MELK (human) = MELK (human) (UniProt Q14680)
MAP3K11 (human) = MAP3K11 (human) (UniProt Q16584)
CDK7 CCNH MNAT1 (human) = CDK7 CCNH MNAT1 (human) (UniProt P50613+P51948+P51946)
PRKCH (human) = PRKCH (human) (UniProt P24723)
KIT (human) = KIT (human) (UniProt P10721)
PBK (human) = PBK (human) (UniProt Q96KB5)
FGR (human) = FGR (human) (UniProt P09769)
MST4 (human) = MST4 (human) (UniProt Q9P289)
EPHA7 (human) = EPHA7 (human) (UniProt Q15375)
CDK5 CDK5R1 p35 (human) = CDK5 CDK5R1 p35 (human) (UniProt Q00535+Q15078)
CAMK2D (human) = CAMK2D (human) (UniProt Q13557)
FYN (human) = FYN (human) (UniProt P06241)
PRKCG (human) = PRKCG (human) (UniProt P05129)
LYN (human) = LYN (human) (UniProt P07948)
PAK4 (human) = PAK4 (human) (UniProt O96013)
ABL1 (human) = ABL1 (human) (UniProt P00519)
ABL1 (human), sequence (P00519 whole entry, looked up): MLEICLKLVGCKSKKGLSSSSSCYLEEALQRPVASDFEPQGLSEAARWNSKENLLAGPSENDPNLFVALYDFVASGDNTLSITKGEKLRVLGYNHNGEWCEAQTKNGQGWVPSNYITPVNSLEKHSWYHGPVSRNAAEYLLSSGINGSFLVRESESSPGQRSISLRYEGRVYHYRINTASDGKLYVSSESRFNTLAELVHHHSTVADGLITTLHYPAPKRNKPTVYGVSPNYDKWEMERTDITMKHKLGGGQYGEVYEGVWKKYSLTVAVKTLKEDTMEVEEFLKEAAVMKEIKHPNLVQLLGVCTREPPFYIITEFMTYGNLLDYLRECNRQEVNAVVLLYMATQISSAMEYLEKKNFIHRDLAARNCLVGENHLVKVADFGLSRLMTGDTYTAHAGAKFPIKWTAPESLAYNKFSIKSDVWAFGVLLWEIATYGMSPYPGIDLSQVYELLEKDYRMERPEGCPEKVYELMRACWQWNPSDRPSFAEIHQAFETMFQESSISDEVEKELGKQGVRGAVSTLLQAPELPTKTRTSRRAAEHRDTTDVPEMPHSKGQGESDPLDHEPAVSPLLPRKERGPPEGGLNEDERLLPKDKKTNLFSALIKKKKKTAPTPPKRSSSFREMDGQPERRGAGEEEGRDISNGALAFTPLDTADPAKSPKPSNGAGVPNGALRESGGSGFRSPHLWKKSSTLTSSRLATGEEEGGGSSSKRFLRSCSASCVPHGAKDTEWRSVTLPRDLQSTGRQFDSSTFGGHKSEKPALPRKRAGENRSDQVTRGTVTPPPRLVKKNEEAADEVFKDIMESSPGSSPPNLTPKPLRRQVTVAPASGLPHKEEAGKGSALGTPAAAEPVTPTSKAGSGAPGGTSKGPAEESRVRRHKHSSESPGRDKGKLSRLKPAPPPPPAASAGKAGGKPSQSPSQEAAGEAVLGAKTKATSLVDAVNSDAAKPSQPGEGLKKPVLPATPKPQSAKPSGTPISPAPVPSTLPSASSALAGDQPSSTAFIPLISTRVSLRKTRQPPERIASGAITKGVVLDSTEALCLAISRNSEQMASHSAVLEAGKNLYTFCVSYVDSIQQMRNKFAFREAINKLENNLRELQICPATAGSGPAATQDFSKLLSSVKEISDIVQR

ACVRL1 (human) = ACVRL1 (human) (UniProt P37023)
ACVRL1 (human), sequence (P37023 whole entry, looked up): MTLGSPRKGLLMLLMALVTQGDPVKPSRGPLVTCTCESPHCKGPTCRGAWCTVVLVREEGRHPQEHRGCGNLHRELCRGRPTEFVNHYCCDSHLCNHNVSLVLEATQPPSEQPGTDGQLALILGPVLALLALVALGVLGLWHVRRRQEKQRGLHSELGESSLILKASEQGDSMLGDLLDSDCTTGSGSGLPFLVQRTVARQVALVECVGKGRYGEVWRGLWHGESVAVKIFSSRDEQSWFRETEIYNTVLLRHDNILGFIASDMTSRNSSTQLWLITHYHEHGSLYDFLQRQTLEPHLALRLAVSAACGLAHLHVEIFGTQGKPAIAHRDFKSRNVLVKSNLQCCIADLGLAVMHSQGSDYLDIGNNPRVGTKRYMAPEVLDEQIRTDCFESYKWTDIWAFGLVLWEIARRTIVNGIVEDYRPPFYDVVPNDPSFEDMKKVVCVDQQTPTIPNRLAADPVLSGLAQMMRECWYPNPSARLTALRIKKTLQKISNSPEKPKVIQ

CDK9 CCNK (human) = CDK9 CCNK (human) (UniProt O75909+P50750)
MAP4K5 (human) = MAP4K5 (human) (UniProt Q9Y4K4)
DYRK3 (human) = DYRK3 (human) (UniProt O43781)
PIM3 (human) = PIM3 (human) (UniProt Q86V86)
VRK1 (human) = VRK1 (human) (UniProt Q99986)
DSTYK (human) = DSTYK (human) (UniProt Q6XUX3)
MATK (human) = MATK (human) (UniProt P42679)
PAK3 (human) = PAK3 (human) (UniProt O75914)
PAK3 (human), sequence (O75914 whole entry, looked up): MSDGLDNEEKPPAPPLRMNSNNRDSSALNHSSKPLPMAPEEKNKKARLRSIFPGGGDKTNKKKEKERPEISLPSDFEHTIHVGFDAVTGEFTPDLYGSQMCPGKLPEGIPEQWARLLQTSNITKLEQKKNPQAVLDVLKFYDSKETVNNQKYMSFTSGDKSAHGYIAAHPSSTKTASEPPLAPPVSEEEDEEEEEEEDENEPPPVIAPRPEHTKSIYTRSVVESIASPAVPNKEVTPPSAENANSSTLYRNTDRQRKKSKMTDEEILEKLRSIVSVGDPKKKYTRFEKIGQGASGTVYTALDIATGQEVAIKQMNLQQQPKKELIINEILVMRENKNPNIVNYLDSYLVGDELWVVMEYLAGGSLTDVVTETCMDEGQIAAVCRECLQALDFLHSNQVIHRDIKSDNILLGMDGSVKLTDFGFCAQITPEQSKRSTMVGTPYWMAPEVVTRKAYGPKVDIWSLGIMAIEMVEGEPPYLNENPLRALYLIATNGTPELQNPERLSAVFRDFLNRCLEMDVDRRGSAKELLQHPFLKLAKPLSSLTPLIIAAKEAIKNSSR

DAPK2 (human) = DAPK2 (human) (UniProt Q9UIK4)
STK3 (human) = STK3 (human) (UniProt Q13188)
PKN2 (human) = PKN2 (human) (UniProt Q16513)
PAK6 (human) = PAK6 (human) (UniProt Q9NQU5)
CDK9 CCNT1 (human) = CDK9 CCNT1 (human) (UniProt P50750+O60563)
ROCK2 (human) = ROCK2 (human) (UniProt O75116)
CSNK2A1 (human) = CSNK2A1 (human) (UniProt P68400)
PRKCA (human) = PRKCA (human) (UniProt P17252)
PDGFRA (human) = PDGFRA (human) (UniProt P16234)
PDGFRA (human), sequence (P16234 whole entry, looked up): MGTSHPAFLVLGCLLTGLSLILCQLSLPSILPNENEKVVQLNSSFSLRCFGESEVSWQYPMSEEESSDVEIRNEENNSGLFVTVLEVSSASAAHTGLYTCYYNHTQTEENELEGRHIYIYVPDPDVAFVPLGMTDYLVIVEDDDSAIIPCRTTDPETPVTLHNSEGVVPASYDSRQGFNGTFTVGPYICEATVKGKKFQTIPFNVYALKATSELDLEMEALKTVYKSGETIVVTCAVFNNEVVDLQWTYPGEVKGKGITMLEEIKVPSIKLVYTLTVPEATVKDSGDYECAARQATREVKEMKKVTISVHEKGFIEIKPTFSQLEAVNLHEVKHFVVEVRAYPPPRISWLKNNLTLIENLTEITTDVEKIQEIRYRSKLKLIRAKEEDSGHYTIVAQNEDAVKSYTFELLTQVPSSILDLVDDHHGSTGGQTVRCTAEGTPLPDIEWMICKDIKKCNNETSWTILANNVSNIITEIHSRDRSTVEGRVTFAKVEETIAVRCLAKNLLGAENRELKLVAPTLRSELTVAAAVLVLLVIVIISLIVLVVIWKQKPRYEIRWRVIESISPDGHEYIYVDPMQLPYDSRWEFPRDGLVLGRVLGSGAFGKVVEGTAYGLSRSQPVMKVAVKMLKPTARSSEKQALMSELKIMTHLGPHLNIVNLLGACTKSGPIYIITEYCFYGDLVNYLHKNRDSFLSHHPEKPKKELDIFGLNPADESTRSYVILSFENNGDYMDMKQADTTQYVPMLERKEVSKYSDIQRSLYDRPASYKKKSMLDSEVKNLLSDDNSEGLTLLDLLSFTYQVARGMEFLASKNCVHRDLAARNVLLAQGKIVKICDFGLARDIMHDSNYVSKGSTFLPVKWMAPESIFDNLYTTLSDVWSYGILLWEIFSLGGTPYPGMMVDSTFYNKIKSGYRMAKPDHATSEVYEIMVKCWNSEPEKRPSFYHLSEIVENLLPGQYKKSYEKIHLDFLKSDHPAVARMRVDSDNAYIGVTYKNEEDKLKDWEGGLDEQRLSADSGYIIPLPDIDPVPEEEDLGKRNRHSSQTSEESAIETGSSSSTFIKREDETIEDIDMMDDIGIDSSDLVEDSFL

CAMK1 (human) = CAMK1 (human) (UniProt Q14012)
CAMK1 (human), sequence (Q14012 whole entry, looked up): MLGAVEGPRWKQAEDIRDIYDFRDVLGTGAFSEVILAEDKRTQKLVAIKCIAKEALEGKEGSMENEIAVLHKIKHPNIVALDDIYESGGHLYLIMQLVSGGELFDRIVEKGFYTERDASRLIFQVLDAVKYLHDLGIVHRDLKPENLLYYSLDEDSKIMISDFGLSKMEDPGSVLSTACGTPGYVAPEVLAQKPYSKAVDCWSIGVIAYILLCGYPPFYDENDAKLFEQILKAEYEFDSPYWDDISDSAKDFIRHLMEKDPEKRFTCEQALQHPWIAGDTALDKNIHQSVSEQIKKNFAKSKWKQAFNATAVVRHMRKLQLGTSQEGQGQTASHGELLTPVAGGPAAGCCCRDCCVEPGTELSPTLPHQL

TTK (human) = TTK (human) (UniProt P33981)
PIM2 (human) = PIM2 (human) (UniProt Q9P1W9)
PIM2 (human), sequence (Q9P1W9 whole entry, looked up): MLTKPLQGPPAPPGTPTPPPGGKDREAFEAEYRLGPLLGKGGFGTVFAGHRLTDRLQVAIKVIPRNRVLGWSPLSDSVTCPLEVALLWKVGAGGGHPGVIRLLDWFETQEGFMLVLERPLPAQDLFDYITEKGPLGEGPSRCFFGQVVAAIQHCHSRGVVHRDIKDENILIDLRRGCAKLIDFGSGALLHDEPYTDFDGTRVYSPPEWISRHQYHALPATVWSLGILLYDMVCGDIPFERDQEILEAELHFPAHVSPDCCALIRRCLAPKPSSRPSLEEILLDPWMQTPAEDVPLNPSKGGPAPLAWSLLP

HIPK2 (human) = HIPK2 (human) (UniProt Q9H2X6)
MAP3K7 TAB1 (human) = MAP3K7 TAB1 (human) (UniProt O43318+Q15750)
PRKG2 (human) = PRKG2 (human) (UniProt Q13237)
PRKG2 (human), sequence (Q13237 whole entry, looked up): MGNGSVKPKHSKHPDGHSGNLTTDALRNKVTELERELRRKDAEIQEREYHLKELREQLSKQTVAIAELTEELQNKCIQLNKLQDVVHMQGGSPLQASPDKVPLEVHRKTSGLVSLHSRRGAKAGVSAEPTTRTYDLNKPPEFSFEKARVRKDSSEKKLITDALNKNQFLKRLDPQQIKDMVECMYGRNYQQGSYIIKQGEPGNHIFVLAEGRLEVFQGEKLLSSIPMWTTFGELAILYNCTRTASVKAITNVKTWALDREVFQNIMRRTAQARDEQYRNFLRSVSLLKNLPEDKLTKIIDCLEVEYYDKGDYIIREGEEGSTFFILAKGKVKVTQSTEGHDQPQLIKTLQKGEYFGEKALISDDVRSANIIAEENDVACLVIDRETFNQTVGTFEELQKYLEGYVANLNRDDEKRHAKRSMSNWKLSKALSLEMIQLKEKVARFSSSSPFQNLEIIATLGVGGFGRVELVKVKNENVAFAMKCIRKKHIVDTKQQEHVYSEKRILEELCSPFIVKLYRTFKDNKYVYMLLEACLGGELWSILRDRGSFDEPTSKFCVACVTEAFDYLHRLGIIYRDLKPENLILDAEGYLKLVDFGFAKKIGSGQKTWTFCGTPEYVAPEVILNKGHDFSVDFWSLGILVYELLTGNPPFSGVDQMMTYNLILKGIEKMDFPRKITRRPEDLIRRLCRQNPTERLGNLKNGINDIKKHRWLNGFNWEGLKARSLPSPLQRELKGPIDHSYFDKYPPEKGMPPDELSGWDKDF

Compound: CCOc1cc2ncnc(Nc3cccc(Br)c3)c2cc1OCC
- residual activity (CDC42BPA (human)): 85.4%
- residual activity (MELK (human)): 88.1%
- residual activity (MAP3K11 (human)): 93%
- residual activity (CDK7 CCNH MNAT1 (human)): 93%
- residual activity (PRKCH (human)): 94.9%
- residual activity (KIT (human)): 74.4%
- residual activity (PBK (human)): 102%
- residual activity (FGR (human)): 61.9%
- residual activity (MST4 (human)): 94.9%
- residual activity (EPHA7 (human)): 58.5%
- residual activity (CDK5 CDK5R1 p35 (human)): 99.2%
- residual activity (CAMK2D (human)): 87%
- residual activity (FYN (human)): 78.9%
- residual activity (PRKCG (human)): 83%
- residual activity (LYN (human)): 32.1% and 49.5%
- residual activity (PAK4 (human)): 115%
- residual activity (ABL1 (human)): 64.3%
- residual activity (ACVRL1 (human)): 103%
- residual activity (CDK9 CCNK (human)): 102%
- residual activity (MAP4K5 (human)): 47.7%
- residual activity (DYRK3 (human)): 98.5%
- residual activity (PIM3 (human)): 105%
- residual activity (VRK1 (human)): 101%
- residual activity (DSTYK (human)): 101%
- residual activity (MATK (human)): 90.5%
- residual activity (PAK3 (human)): 97.6%
- residual activity (DAPK2 (human)): 103%
- residual activity (STK3 (human)): 99.5%
- residual activity (PKN2 (human)): 90%
- residual activity (PAK6 (human)): 119%
- residual activity (CDK9 CCNT1 (human)): 98.5%
- residual activity (ROCK2 (human)): 91.8%
- residual activity (CSNK2A1 (human)): 95.9%
- residual activity (PRKCA (human)): 85.3%
- residual activity (PDGFRA (human)): 84.7%
- residual activity (CAMK1 (human)): 79.9%
- residual activity (TTK (human)): 91.2%
- residual activity (PIM2 (human)): 98.9%
- residual activity (HIPK2 (human)): 96.8%
- residual activity (MAP3K7 TAB1 (human)): 102%
- residual activity (PRKG2 (human)): 83.9%

Compound: COc1cc2ncnc(Nc3ccc(O)c(Br)c3)c2cc1OC
- residual activity (CDC42BPA (human)): 96.9%
- residual activity (MELK (human)): 83.4%
- residual activity (MAP3K11 (human)): 83.7%
- residual activity (CDK7 CCNH MNAT1 (human)): 97%
- residual activity (PRKCH (human)): 86.3%
- residual activity (KIT (human)): 97.3%
- residual activity (PBK (human)): 101%
- residual activity (FGR (human)): 57.8%
- residual activity (MST4 (human)): 90.2%
- residual activity (EPHA7 (human)): 46.1%
- residual activity (CDK5 CDK5R1 p35 (human)): 99.6%
- residual activity (CAMK2D (human)): 95.7%
- residual activity (FYN (human)): 80.4%
- residual activity (PRKCG (human)): 94.1%
- residual activity (LYN (human)): 40.3% and 60%
- residual activity (PAK4 (human)): 95.7%
- residual activity (ABL1 (human)): 79.4%
- residual activity (ACVRL1 (human)): 102%
- residual activity (CDK9 CCNK (human)): 91.1%
- residual activity (MAP4K5 (human)): 28.9%
- residual activity (DYRK3 (human)): 95.3%
- residual activity (PIM3 (human)): 73.3%
- residual activity (VRK1 (human)): 86.4%
- residual activity (DSTYK (human)): 106%
- residual activity (MATK (human)): 98%
- residual activity (PAK3 (human)): 94.2%
- residual activity (DAPK2 (human)): 100%
- residual activity (STK3 (human)): 89.6%
- residual activity (PKN2 (human)): 97.2%
- residual activity (PAK6 (human)): 92.8%
- residual activity (CDK9 CCNT1 (human)): 91.4%
- residual activity (ROCK2 (human)): 89.9%
- residual activity (CSNK2A1 (human)): 93.7%
- residual activity (PRKCA (human)): 109%
- residual activity (PDGFRA (human)): 88.9%
- residual activity (CAMK1 (human)): 103%
- residual activity (TTK (human)): 105%
- residual activity (PIM2 (human)): 94.1%
- residual activity (HIPK2 (human)): 102%
- residual activity (MAP3K7 TAB1 (human)): 100%
- residual activity (PRKG2 (human)): 84.1%

Compound: COc1cc2c(N3CCN(C(=O)Nc4ccc(OC(C)C)cc4)CC3)ncnc2cc1OCCCN1CCCCC1
- residual activity (CDC42BPA (human)): 106%
- residual activity (MELK (human)): 87.9%
- residual activity (MAP3K11 (human)): 100%
- residual activity (CDK7 CCNH MNAT1 (human)): 109%
- residual activity (PRKCH (human)): 108%
- residual activity (KIT (human)): 45.1%
- residual activity (PBK (human)): 98%
- residual activity (FGR (human)): 94%
- residual activity (MST4 (human)): 101%
- residual activity (EPHA7 (human)): 97.5%
- residual activity (CDK5 CDK5R1 p35 (human)): 99.4%
- residual activity (CAMK2D (human)): 106%
- residual activity (FYN (human)): 94.8%
- residual activity (PRKCG (human)): 90.9%
- residual activity (LYN (human)): 103% and 95.6%
- residual activity (PAK4 (human)): 103%
- residual activity (ABL1 (human)): 104%
- residual activity (ACVRL1 (human)): 102%
- residual activity (CDK9 CCNK (human)): 107%
- residual activity (MAP4K5 (human)): 87.6%
- residual activity (DYRK3 (human)): 109%
- residual activity (PIM3 (human)): 100%
- residual activity (VRK1 (human)): 100%
- residual activity (DSTYK (human)): 92.7%
- residual activity (MATK (human)): 79.4%
- residual activity (PAK3 (human)): 105%
- residual activity (DAPK2 (human)): 104%
- residual activity (STK3 (human)): 94.7%
- residual activity (PKN2 (human)): 110%
- residual activity (PAK6 (human)): 101%
- residual activity (CDK9 CCNT1 (human)): 100%
- residual activity (ROCK2 (human)): 90.8%
- residual activity (CSNK2A1 (human)): 102%
- residual activity (PRKCA (human)): 109%
- residual activity (PDGFRA (human)): 11.1%
- residual activity (CAMK1 (human)): 101%
- residual activity (TTK (human)): 100%
- residual activity (PIM2 (human)): 113%
- residual activity (HIPK2 (human)): 91.8%
- residual activity (MAP3K7 TAB1 (human)): 91.8%
- residual activity (PRKG2 (human)): 105%
